Activity calls are given as the source filed them. The rule behind the calls is not given here.
Tests used:
[1] = Binding affinity to sodium ion in HPTS dye encapsulated EPYC/cholesterol vesicles assessed as increase in internal pH at 5 mol% of lipid after 2 mins in presence of NaOH loaded external vesicles by fluorescence spectroscopic analysis (reference value: 5.6 +/- 1.2 10^-3/s)
[2] = Binding affinity to potassium ion in HPTS dye encapsulated EPYC/cholesterol vesicles assessed as increase in internal pH at 5 mol% of lipid after 2 mins in presence of KOH loaded external vesicles by fluorescence spectroscopic analysis (reference value: 5.6 +/- 1.2 10^-3/s)
[3] = Binding affinity to lithium ion in HPTS dye encapsulated EPYC/cholesterol vesicles assessed as increase in internal pH at 5 mol% of lipid after 2 mins in presence of LiOH loaded external vesicles by fluorescence spectroscopic analysis (reference value: 5.6 +/- 1.2 10^-3/s)
[4] = Effect on membrane integrity in EYPC/cholesterol vesicles at 40 uM by dynamic light scattering method; format: ADME
[5] = Binding affinity to potassium ion in 1,2-diphytanoyl-sn-glycero-3-phosphocholine based bilayer membrane assessed as reversal of membrane potential at 0.1 mg/ml in presence of KCl loaded cis membrane
[6] = Binding affinity to potassium ion in 1,2-diphytanoyl-sn-glycero-3-phosphocholine based bilayer membrane assessed as increase in membrane current at 0.1 mg/ml in presence of KCl loaded cis membrane
[7] = Binding affinity to sodium ion in HPTS dye encapsulated EPYC/cholesterol vesicles assessed as increase in internal pH at 20 uM after 2 mins in presence of NaOH loaded external vesicles by fluorescence spectroscopic analysis
[8] = Binding affinity to sodium ion in lucigenin/NaCl encapsulated EPYC/cholesterol vesicle at 10 mol% of lipid by fluorescence spectroscopic method
[9] = Binding affinity to sodium ion in lucigenin/NaCl encapsulated EPYC/cholesterol vesicle by fluorescence spectroscopic method

CCCCCCCCCCCCCC(=O)N[C@@H](C)C(=O)N[C@H](C)C(=O)N[C@@H](C)C(=O)Nc1cccc(C(=O)OC)n1
K [1]: 12.4 ×10⁻³ /s | K [2]: 15.3 ×10⁻³ /s | K [3]: 14.3 ×10⁻³ /s | Activity [4]: Non-Toxic

CCCCCCCCCCCCCC(=O)N[C@@H](C)C(=O)Nc1cccc(C(=O)N[C@@H](C)C(=O)N[C@H](C)C(=O)OCCOCCOCC)n1
Activity [5]: -14.9 mV | Activity [6]: 40 pA | Activity [7]: Active | Activity [4]: Non-Toxic

CCCCCCCCCCCCCC(=O)N[C@@H](C)C(=O)N[C@H](C)C(=O)N[C@@H](C)C(=O)Nc1cccc(C(=O)OCCOCCOCC)n1
Activity [5]: -10.8 mV | Activity [6]: 30 pA | K [1]: 28.9 ×10⁻³ /s | K [2]: 15.8 ×10⁻³ /s | K [3]: 17.5 ×10⁻³ /s | Activity [4]: Non-Toxic | K [8]: 9.7 ×10⁻³ /s | EC50 [9]: 0.94 mol%
